In patent US20040067998A1, “Antifungal and/or antiparasitic pharmaceutical composition and novel indole derivatives as active principle of such a composition” (priority 2003, published 2004):
Converted amounts (≈) assume the structure as drawn. “And” between values parts separate entries of the source, which are not always exact repeats. Equal entries are not always repeated. Where two headings read alike, the source gives them in different places.

How the values were obtained:
[1] = tested on: Candida albicans (strain n° CA980001); assay: Antifungal activity on a clinical strain of Candida albicans (MTT colorimetric microplate test); format: cell-based; conditions: for MIC / CMI or CI80 Candida albicans (CA980001): strain CA980001; for MIC: read-out: CMI or CI80 Candida albicans (CA980001)
[2] = tested on: promastigote stage of Leishmania mexicana; assay: Antiparasitic activity on the promastigote form of Leishmania (MTT); format: cell-based; conditions: for IC50: read-out: CI50 Leishmania mexicana Promastigotes
[3] = tested on: Aspergillus fumigatus (strain n°AF 980003); assay: Antifungal activity on a clinical strain of Aspergillus fumigatus (Alamar Blue microplate test); format: cell-based; conditions: for MIC / CMI or CI80 Aspergillus fumigatus (AF980003): strain AF980003; for MIC: read-out: CMI or CI80 Aspergillus fumigatus (AF980003); for activity against Aspergillus fumigatus (in words): summary of Tables 27 to 40
[4] = tested on: Candida albicans (CA98001); assay: Antifungal activity in vivo on a model of disseminated candidiasis; set-up: species or system female Swiss mice; conditions: mouse, in vivo
[5] = Candida albicans, 24 h at 37° C., MTT
[6] = promastigotes, 36 h at 26° C., MTT

SMILES	CMI or CI80 Candida albicans (CA980001) ([1]; 24 h at 37° C., MTT)	CMI or CI80 Aspergillus fumigatus (AF980003) ([3]; Alamar Blue)	MIC ([1]; 24 h at 37° C., MTT)	CI50 Leishmania mexicana Promastigotes [2]	IC50 [2]	MIC ([3]; Alamar Blue)	further results
Fc1ccc(C(C(n2ccc3ccccc32)n2nnc3ccccc32)n2ccnc2)cc1 (stereo not drawn) [Cpsé 83, 1-[2-(4-Fluorophenyl)-2-(1H-imidazol-1-yl)-1-(benzotriazol-1-yl)ethyl]-1H-indole]							MIC ([1]; Candida albicans, 24 h): 66 ± 6 µM (≈ 27.9 µg/mL); CMI or CI80 Candida albicans (CA980001) ([1]; listed as 46): 26 ± 2 µg/mL; IC50 ([2]; Leishmania mexicana): 14 µg/mL and 35 µM; MIC ([3]; Aspergillus fumigatus): > 100 µM
Fc1ccc(Cn2cc(Cn3ccnc3)c3cccnc32)cc1 [Cpsé 88, 1-(4-Fluorobenzyl)-3-(1H-Imidazol-1ylmethyl)-1H-7-azaindole]							MIC [1, 5]: 0.7 ± 0.01 µM (≈ 0.214 µg/mL); CMI or CI80 Candida albicans (CA980001) ([1]; 24 h at 37° C., MTT, listed as 51): 0.28 ± 0.01 µg/mL; activity of inhibition of Candida albicans (in words) ([1]; summary of Tables 27 to 40): most active; IC50 ([2]; Leishmania mexicana, promastigotes, 36 h at 26° C., MTT): 16.6 µM and 6.64 µg/mL; MIC ([3]; Aspergillus fumigatus, Alamar Blue): > 100 µM
OC(Cn1cncn1)(Cn1cncn1)c1ccc(F)cc1F [Fluconazole, fluconazole, reference compound]	0.02 µg/mL						MIC [1, 5]: 0.07 µM (≈ 0.0214 µg/mL); survival at D10 [4]: 100%
Fc1cccc(Cn2cc(Cn3ccnc3)c3ccccc32)c1 [compound 5]	68 ± 1 μM and 20.76 ± 1 μg/ml	46 ± 5 μM and 14 ± 1.5 μg/ml					CI50 Leishmania mexicana Promastigotes [2, 6]: 9.2 ± 0.7 µg/mL (≈ 30.1 µM); IC50 [2, 6]: 30.4 ± 2.5 µM; activity against Aspergillus fumigatus (in words) [3]: strong activity
Fc1ccc(Cn2cc(Cn3ccnc3)c3ccccc32)c(F)c1 [compound 6]	48 ± 4 μM and 16 ± 2 μg/ml	60 ± 2 μM and 19.4 ± 2 μg/ml					CI50 Leishmania mexicana Promastigotes [2, 6]: 6 ± 0.5 µg/mL (≈ 18.6 µM); IC50 [2, 6]: 18.5 ± 1.8 µM; activity against Aspergillus fumigatus (in words) [3]: strong activity
Fc1ccccc1Cn1cc(Cn2ccnc2)c2cc(Br)ccc21 [compound 11]			>100 µM	18.3 ± 0.6 µg/mL (≈ 47.6 µM)	47.7 ± 1.6 µM	>100 µM	
Fc1ccc(Cn2cc(Cn3ccnc3)c3cc(Br)ccc32)cc1 [compound 12]			>100 µM	7.9 ± 0.9 µg/mL (≈ 20.6 µM)	20.6 ± 2.4 µM	>100 µM	
Clc1ccc(Cn2cc(Cn3ccnc3)c3cc(Cl)ccc32)cc1 [compound 14]	30 µg/mL	71 ± 3 μM and 25 ± 1 μg/ml	85 µM (≈ 30.3 µg/mL)	non linear			
Fc1ccc2c(c1)c(Cn1ccnc1)cn2Cc1ccc(Cl)cc1 [compound 15]	21 ± 1 μM and 7 ± 1 μg/ml	61 ± 3 μM and 20.73 ± 3 μg/ml					CI50 Leishmania mexicana Promastigotes [2, 6]: 5.4 ± 1.6 µg/mL (≈ 15.9 µM); IC50 [2, 6]: 15.9 ± 5 µM; activity against Aspergillus fumigatus (in words) [3]: strong activity
Fc1ccccc1Cn1cc(Cn2cncn2)c2cc(Br)ccc21 [compound 24]			>100 µM	30.74 µg/mL (≈ 79.8 µM)	79.8 µM	>100 µM	
Fc1ccc(Cn2cc(Cn3cncn3)c3cc(Br)ccc32)cc1 [compound 25]			>100 µM	19.38 µg/mL (≈ 50.3 µM)	50.3 µM	>100 µM	
CCn1c(C(c2cccc(Cl)c2)n2ccnc2)c(C)c2cc(Br)ccc21 (stereo not drawn) [compound 32]					< 0.1 µM		CMI or CI80 Candida albicans (CA980001) [1]: 62 ± 1 μM and 27 ± 0.5 μg/mL; activity against Leishmania mexicana (in words) [2]: most active; CMI or CI80 Aspergillus fumigatus (AF980003) [3]: 66 ± 5 μM and 28 ± 2 μg/mL
